Results on seven compounds are retold here after patent publication US20230295152A1 (SENDA BIOSCIENCES, INC., priority 2019, published 2023).

≈ marks a conversion by molar mass, not a printed value. Where two headings read alike, the source gives them in different places.

The nature of series [1]: Solubility Determination Assay in PBS pH 1.6 and pH 7.4. Format: physicochemical. The following applies: PBS buffer, aqueous buffer, kinetic from dmso stock. The method, then:
The stock solutions of test compounds and control compound progesterone were prepared in DMSO at the concentrations of 10 mM. 15 μL of stock solution (10 mM) of each sample was placed in order into their proper 96-well rack. 485 μL of PBS pH 1.6 and pH 7.4 were added into each vial of the cap-less Solubility Sample plate. The assay was performed in singlet. One stir stick was added to each vial and then the vial was sealed using a molded PTFE/Silicone plug. […] After completion of the 2 hours, plugs were removed and the stir sticks were removed using a big magnet. The samples from the Solubility Sample plate were transferred into the filter plate. Using the Vacuum Manifold, all the samples were filtered. An aliquot of 5 μL was taken from the filtrate followed by addition of 495 μL of a mixture of H2O and acetonitrile containing internal standard (1:1). A certain proportion of ultrapure water was used to dilute the diluent according to the peak shape. The dilution factor was changed according to the solubility values and the LC-MS signal response.
From the 10 mM DMSO STD plate, 6 μL was transferred into the remaining empty plate, and then 194 μL of DMSO were added to that plate to have a STD concentration of 300 μM. From the 300 μM DMSO STD plate, 5 μL were transferred into the remaining empty plate, and then 495 μL of a mixture of H2O and acetonitrile containing internal standard (1:1) were added to that plate to have a final STD concentration of 3 μM. A certain proportion of ultrapure water was used to dilute the diluent according to the peak shape. The concentrations of the standard samples were changed according to the LC-MS signal response.
The plate was placed into the well plate autosampler. The samples were evaluated by LC-MS/MS analysis.
All calculations were carried out using Microsoft Excel.
The filtrate was analyzed and quantified against a standard of known concentration using LC coupled with mass spectral peak identification and quantitation. Solubility values of the test compound and control compound were calculated as follows: […]
Any value of the compounds that was not within the specified limits was rejected and the experiment was repeated.
“+++” indicates a solubility value equal to or greater than 1 μM, “++” indicates a solubility value between 0.1 and 1 μM, and “+” indicates a solubility value less than 0.1 μM.

The nature of series [2]: Hepatocyte Stability Assay, human. The class given is in vitro ADME. The conditions noted are these: cryopreserved hepatocytes in suspension; human hepatocytes; read-out: Human hepatocyte clearance. The protocol:
• Preparation of working solutions: 10 mM stock solutions of test compound and positive control were prepared in DMSO. In separate conical tubes, the 10 mM solution of test compound and the positive control were diluted to 100 μM by combining 198 μL of 50% acetonitrile/50% water and 2 μL of 10 mM stock.
Preparation of Hepatocytes: Incubation medium (William's E Medium supplemented with GlutaMAX) and hepatocyte thawing medium were placed in a 37° C. water bath and allowed warming for at least 15 minutes prior to use. A vial of cryopreserved hepatocytes was transferred from storage, ensuring that vials remained at cryogenic temperatures until thawing process ensued. Cells were thawed by placing the vial in a 37° C. water bath and gently shaking the vials for 2 minutes. After thawing was completed, vial was sprayed with 70% ethanol and transferred to a biosafety cabinet. Wide-bore pipette tip were used to transfer hepatocytes into 50 mL conical tube containing thawing medium. The 50 mL conical tube were placed into a centrifuge and spun at 100 g for 10 minutes. Upon completion of spin, thawing medium was aspirated and resuspended hepatocytes in enough incubation medium to yield ˜1.5×10^6 cells/mL. Using an AO/PI Staining, cells were counted and the viable cell density was determined. Cells with poor viability (<75% viability) were determined to be not acceptable for use. Cells were diluted with incubation medium to a working cell density of 0.5×10^6 viable cells/mL.
Procedure for Stability Determination: 198 μL of hepatocytes were pipetted into each wells of a 96-well non-coated plate. The plate was placed in the incubator to allow the hepatocytes to warm for 10 minutes. 2 μL of the 100 μM test compound or positive control solutions were pipetted into respective wells of the 96-well non-coated plate to start the reaction. The plate was returned to the incubator for the designed time points. Well contents was transferred in 25 μL aliquots at time points of 0, 15, 30, 60, 90 and 120 minutes. The aliquots were then mixed with 6 volumes (150 μL) of acetonitrile containing internal standard, IS (100 nM alprazolam, 200 nM caffeine and 100 nM tolbutamide) to terminate the reaction. The mixture was vortex for 5 minutes. Samples were centrifuged for 45 minutes at 3,220 g. An aliquot of 100 μL of the supernatant was diluted by 100 μL ultra-pure water, and the mixture was used for LC/MS/MS analysis. All incubations were performed in duplicate.
Data Analysis: All calculations were carried out using Microsoft Excel. Peak areas were determined from extracted ion chromatograms. In vitro half-life (t1/2) of parent compound was determined by regression analysis of the percent parent disappearance vs. time curve.
(§1) The in vitro half-life (in vitro t1/2) was determined from the slope value:
Conversion of the in vitro t1/2 (in min) into the in vitro intrinsic clearance (in vitro CLint, in μL/min/1×10^6 cells) was done using the following equation (mean of duplicate determinations):
V=incubation volume(0.2 mL);
N=number of hepatocytes per well(0.1×10^6 cells).
“+++” indicates a CLint value less than 20 mL/min/Kg, “++” indicates a CLint between 20 and 50 mL/min/Kg, and “+” indicates an CLint above 50 mL/min/Kg.

The target in the next series is T1, AHR (Homo sapiens, UniProt P35869).
T1 construct: other cell line with a DRE-luciferase reporter stably transfected; endogenous in cells; host or cells: HepG2 AhR-Lucia reporter cells
T1 sequence (P35869 11-848): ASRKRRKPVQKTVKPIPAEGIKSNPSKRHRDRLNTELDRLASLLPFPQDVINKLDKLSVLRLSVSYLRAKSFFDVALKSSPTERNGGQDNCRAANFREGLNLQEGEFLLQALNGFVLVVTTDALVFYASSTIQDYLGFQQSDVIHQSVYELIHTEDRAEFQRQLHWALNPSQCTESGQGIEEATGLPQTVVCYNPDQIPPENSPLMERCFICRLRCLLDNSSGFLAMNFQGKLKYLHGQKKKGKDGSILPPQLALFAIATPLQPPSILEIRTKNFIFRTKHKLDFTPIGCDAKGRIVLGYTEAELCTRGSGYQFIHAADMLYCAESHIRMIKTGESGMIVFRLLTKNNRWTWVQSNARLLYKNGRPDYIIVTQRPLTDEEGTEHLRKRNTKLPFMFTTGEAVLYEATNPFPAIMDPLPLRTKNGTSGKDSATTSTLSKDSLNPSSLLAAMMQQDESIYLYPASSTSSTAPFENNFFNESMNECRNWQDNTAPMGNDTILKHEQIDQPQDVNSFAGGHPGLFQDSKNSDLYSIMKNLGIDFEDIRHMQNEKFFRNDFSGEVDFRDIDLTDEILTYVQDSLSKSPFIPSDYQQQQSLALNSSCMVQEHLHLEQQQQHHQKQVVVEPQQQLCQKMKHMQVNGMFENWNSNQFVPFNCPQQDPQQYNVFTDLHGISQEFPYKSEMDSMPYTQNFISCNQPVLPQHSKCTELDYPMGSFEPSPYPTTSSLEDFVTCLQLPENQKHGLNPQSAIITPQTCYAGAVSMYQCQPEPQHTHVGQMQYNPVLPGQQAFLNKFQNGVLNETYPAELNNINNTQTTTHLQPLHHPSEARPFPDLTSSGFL
The experiment in a line: DRE-Luciferase Reporter Assay, HepG2 AhR-Lucia reporter cells. Format: cell-based. The conditions noted are these: with AHR activating ligand at EC50, read-out: HepG2-Luc IC50. The method, boiled down:
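Antagonism read as inhibition of agonist-driven secreted luciferase in stably DRE-reporter-transfected cells such as HepG2 AhR-Lucia. Agonist ligand at EC50 concentration added 1 hr post-plating alongside antagonist (log series, top 100 uM); supernatant read at 24 or 48 h, IC50 derived against agonist-only maximum.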

Series [3] in a line: Liver Microsome Stability Assay, human. The class given is in vitro ADME. The following applies: human liver microsomes. The protocol:
Two separate experiments were performed as follows.
With Cofactors (NADPH): 25 μL of 10 mM NADPH was added to the incubations. The final concentrations of microsomes and NADPH were 0.5 mg/mL and 1 mM, respectively. The final concentration of microsomes was 0.5 mg/mL. The mixture was pre-warmed at 37° C. for 10 minutes. The reaction was started with the addition of 2.5 μL of 100 μM control compound or test compound solutions. Verapamil was used as positive control in this study. The final concentration of test compound or control compound was 1 μM. The incubation solution was incubated in water batch at 37° C. Aliquots of 25 μL were taken from the reaction solution at 0.5, 5, 15, 30 and 60 minutes. The reaction was stopped by the addition of 5 volumes of cold acetonitrile with IS (200 nM caffeine and 100 nM tolbutamide). Samples were centrifuged at 3, 220 g for 40 minutes. Aliquot of 100 μL of the supernatant was mixed with 100 μL of ultra-pure H2O and then used for LC-MS/MS analysis.
Data Analysis: All calculations were carried out using Microsoft Excel. Peak areas were determined from extracted ion chromatograms. The slope value, k, was determined by linear regression of the natural logarithm of the remaining percentage of the parent drug vs. incubation time curve.
as §1
Conversion of the in vitro t1/2 (min) into the in vitro intrinsic clearance (in vitro CLint, in μL/min/mg protein) was done using the following equation (mean of duplicate determinations): […]
The calculations of Scaled-up CLint(mL/min/kg), Predicted CLH (mL/min/kg) and EH were done using the following equation:
Scaled-up CLint=(0.693/t1/2)×(1/(microsomal protein concentration(0.5 mg/mL)))×Scaling Factors;Predicted CLH=(QH×Scaled-up CLint×fub)/(QH+Scaled-up CLint×fub);EH=Predicted CLH/QH
where QH is the hepatic blood flow (mL/min/kg) (Table 32), • fub is the fraction of unbound drug in plasma which is assumed to be 1.
“+++” indicates a Clint value less than 10 mL/min/Kg, […] indicates a Clint between 10 and 20 mL/min/Kg, and “+” indicates a Clint above 20 mL/min/Kg.

Where [4] appears, read: PBS pH 1.6, 25° C., read-out: Aq. Solubility at pH = 1.6.
Setting [5] is: PBS pH 7.4, 25° C., read-out: Aq. Solubility at pH = 7.4.

With `O=c1c2cc(-c3ccc(Cl)cc3)nc(-c3cccnc3)c2ncn1[C@H]1COC[C@H]1O` (stereo in doubt) [Compound 70], the solubility at 2 h in series [1] (setting [4]) and in series [1] (setting [5]) was at least 1 µM each time. In series [2], the CLint scaled at 1 μM was below 20 mL/min/kg.
For `C[C@H](n1cnc2c(-c3cccnc3)nc(-c3ccc(Cl)cc3)cc2c1=O)C(C)(C)O` [Compound 36], the IC50 on AHR was below 100 nM. The solubility at 2 h in series [1] (setting [4]) was at least 1 µM; in series [1] (setting [5]), below 0.1 µM. In addition, the “Human liver microsome clearance” value in series [3] is on record as “+++ (“+++” indicates a Clint value less than 10 mL/min/Kg)”.
As to `Cc1ccc(-c2cc3c(=O)n([C@@H](C)CO)cnc3c(-c3cccc(F)c3)n2)cc1` [Compound 48, 8-(3-fluorophenyl)-3-[(1S)-2-hydroxy-1-methyl-ethyl]-6-(p-tolyl)pyrido[3,4-d]pyrimidin-4-one], the IC50 on AHR was below 100 nM. Further, the solubility at 2 h in series [1] (setting [4]) is at least 1 µM; in series [1] (setting [5]), 0.1 to 1 µM (≈ 0.0389 to 0.389 µg/mL). Further, in series [3], the “Human liver microsome clearance” value was “+++ (“+++” indicates a Clint value less than 10 mL/min/Kg)”.
Consider `C[C@@H](CO)n1cnc2c(-c3cccc(F)c3)nc(-c3ccc(OC(F)(F)F)cc3)cc2c1=O` [Compound 49, 8-(3-fluorophenyl)-3-[(1S)-2-hydroxy-1-methyl-ethyl]-6-[4-(trifluoromethoxy)phenyl]pyrido[3,4-d]pyrimidin-4-one], for which the IC50 at AHR is below 100 nM. In addition, the solubility at 2 h in series [1] (setting [4]) and in series [1] (setting [5]) was below 0.1 µM in each case. Besides, the “Human liver microsome clearance” value in series [3] was “+++ (“+++” indicates a Clint value less than 10 mL/min/Kg)”.
Take `O=c1c2cc(-c3ccc(OC(F)(F)F)cc3)nc(-c3cccnc3)c2ncn1C[C@@H](O)C(F)(F)F` [Compound 123, (R)-8-(pyridin-3-yl)-3-(3,3,3-trifluoro-2-hydroxypropyl)-6-(4-(trifluoromethoxy)phenyl)pyrido[3,4-d]pyrimidin-4(3H)-one]: the solubility at 2 h in series [1] (setting [4]) was at least 1 µM; in series [1] (setting [5]), below 0.1 µM. Further, the CLint scaled at 1 μM in series [2] was below 20 mL/min/kg.
In the case of `O=c1c2cc(-c3ccc(Cl)cc3)nc(-c3cccnc3)c2ncn1[C@@H]1CNC[C@H]1O` [Compound 134, 6-(4-chlorophenyl)-3-((3R,4R)-4-hydroxypyrrolidin-3-yl)-8-(pyridin-3-yl)pyrido[3,4-d]pyrimidin-4(3H)-one], the IC50 at AHR was below 100 nM. The CLint scaled at 1 μM in series [2] was below 20 mL/min/kg.
As for `C[C@@H](CO)n1cnc2c(-c3cnn(C)c3)nc(-c3ccc(C(F)(F)F)cn3)cc2c1=O` [Compound 150, (S)-3-(1-hydroxypropan-2-yl)-8-(1-methyl-1H-pyrazol-4-yl)-6-(5-(trifluoromethyl)pyridin-2-yl)pyrido[3,4-d]pyrimidin-4(3H)-one], at AHR, the IC50 is below 100 nM. Besides, the CLint scaled at 1 μM in series [2] was below 20 mL/min/kg.
